Our source for the IC50 values is ChEMBL document CHEMBL5260855, “Design, synthesis and biological evaluation of simplified analogues of MraY inhibitory natural product with rigid scaffold” (Bioorg Med Chem, 2021).

SMILES strings stand for the structures.

Usually IC50 stands for the concentration that inhibits the measured activity by half. A lower IC50 goes with higher potency.

Test system in one experiment: not listed separately
The experiment can be described thus: Inhibition of bacterial MraY. Also noted: species or system Bacteria.
For `CCCCCCCCCCCCCCCC[C@H](NC(C)=O)C(=O)NCCCN[C@H](C(=O)O)[C@H](O[C@@H]1O[C@H](CN)[C@@H](O)[C@H]1O)[C@H]1O[C@@H](n2ccc(=O)[nH]c2=O)[C@H](O)[C@@H]1O`, the IC50 was determined as 2.7 nM.

Compound `CCCCCCCCCCCCCCCCC[C@H]1CN[C@@H]([C@H](O[C@@H]2O[C@H](CN)[C@@H](O)[C@H]2O)[C@H]2O[C@@H](n3ccc(=O)[nH]c3=O)[C@H](O)[C@@H]2O)C(=O)N(C)[C@@H]1C(=O)O` gave a half-maximal inhibitory concentration (IC50) of 3.8 nM.

Regarding `CC(C)C[C@H](NC(=O)[C@@H](NC(=O)N[C@H](C(=O)O)C(C)C)[C@@H]1CCNC(=N)N1)C(=O)NCCCN[C@H](C(=O)O)[C@H](O[C@@H]1O[C@H](CN)[C@@H](O)[C@H]1O)[C@H]1O[C@@H](n2ccc(=O)[nH]c2=O)[C@H](O)[C@@H]1O` [MURAMYCIN D2], half-maximal inhibition (IC50) required 25 nM.

The target in another experiment is T1, Phospho-N-acetylmuramoyl-pentapeptide-transferase (Bacillus subtilis (strain 168), UniProt Q03521).
T1 sequence (Q03521 whole entry): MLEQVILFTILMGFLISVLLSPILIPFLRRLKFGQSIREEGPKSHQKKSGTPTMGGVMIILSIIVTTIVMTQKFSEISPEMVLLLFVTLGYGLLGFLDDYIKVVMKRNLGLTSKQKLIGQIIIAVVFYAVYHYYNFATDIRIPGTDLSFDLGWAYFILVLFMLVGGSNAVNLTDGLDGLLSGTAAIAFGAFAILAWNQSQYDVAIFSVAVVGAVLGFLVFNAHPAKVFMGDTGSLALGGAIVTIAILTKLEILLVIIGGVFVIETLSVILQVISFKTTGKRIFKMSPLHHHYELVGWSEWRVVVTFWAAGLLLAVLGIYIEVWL
Briefly: Inhibition of Bacillus subtilis MraY.
For `NC[C@H]1O[C@@H](O[C@@H](c2cn(Cc3ccc(Cc4ccc(C(=O)c5ccccc5)cc4)cc3)nn2)[C@H]2O[C@@H](n3ccc(=O)[nH]c3=O)[C@H](O)[C@@H]2O)[C@H](O)[C@@H]1O`, the IC50 was determined as 50 µM.

For the next experiment, the target named is T2, Phospho-N-acetylmuramoyl-pentapeptide-transferase (Staphylococcus aureus, UniProt P0C1R8).
T2 sequence (P0C1R8 whole entry): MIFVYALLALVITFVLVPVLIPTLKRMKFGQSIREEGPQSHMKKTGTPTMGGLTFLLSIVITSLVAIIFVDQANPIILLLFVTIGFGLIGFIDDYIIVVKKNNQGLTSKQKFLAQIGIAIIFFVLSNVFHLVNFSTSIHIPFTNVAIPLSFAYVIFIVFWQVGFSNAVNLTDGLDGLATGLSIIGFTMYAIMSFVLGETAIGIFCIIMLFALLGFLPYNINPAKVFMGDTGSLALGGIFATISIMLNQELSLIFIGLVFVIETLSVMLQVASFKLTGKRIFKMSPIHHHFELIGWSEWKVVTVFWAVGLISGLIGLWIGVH
Briefly: Inhibition of Staphylococcus aureus MraY using UDP-MurNAc-dansylpentapeptide as substrate incubated for 3 hrs by fluorescence based microplate reader analysis.
In turn, `Cc1ccccc1C#C[C@H](O[C@@H]1O[C@H](CN)[C@@H](O)[C@H]1O)[C@H]1O[C@@H](n2ccc(=O)[nH]c2=O)[C@H](O)[C@@H]1O` yielded an IC50 of 2000 nM.

As for `NC[C@H]1O[C@@H](O[C@@H](C#Cc2cccc(NS(=O)(=O)c3ccccc3)c2)[C@H]2O[C@@H](n3ccc(=O)[nH]c3=O)[C@H](O)[C@@H]2O)[C@H](O)[C@@H]1O`, the IC50 came to 950 nM.

For `C#C[C@H](O[C@@H]1O[C@H](CN)[C@@H](O)[C@H]1O)[C@H]1O[C@@H](n2ccc(=O)[nH]c2=O)[C@H](O)[C@@H]1O`, the IC50 was found to be 90000 nM.

As for `NC[C@H]1O[C@@H](O[C@@H](C#Cc2ccc(-c3ccccc3)cc2)[C@H]2O[C@@H](n3ccc(=O)[nH]c3=O)[C@H](O)[C@@H]2O)[C@H](O)[C@@H]1O`, 590 nM corresponded to half-maximal inhibition (IC50).

`NC[C@H]1O[C@@H](O[C@@H](C#Cc2cccc(N)c2)[C@H]2O[C@@H](n3ccc(=O)[nH]c3=O)[C@H](O)[C@@H]2O)[C@H](O)[C@@H]1O` displayed a 50% inhibitory concentration (IC50) of 1800 nM.

As to `NC[C@H]1O[C@@H](O[C@@H](C#Cc2cccc(C(=O)O)c2)[C@H]2O[C@@H](n3ccc(=O)[nH]c3=O)[C@H](O)[C@@H]2O)[C@H](O)[C@@H]1O`, the half-inhibitory concentration (IC50) was 1500 nM.

`NC[C@H]1O[C@@H](O[C@@H](C#Cc2ccc(NS(=O)(=O)c3ccccc3)cc2)[C@H]2O[C@@H](n3ccc(=O)[nH]c3=O)[C@H](O)[C@@H]2O)[C@H](O)[C@@H]1O` displayed a half-maximal inhibitory concentration (IC50) of 1000 nM.

In the case of `NC[C@H]1O[C@@H](O[C@@H](C#Cc2cccc(C(=O)Nc3ccccc3)c2)[C@H]2O[C@@H](n3ccc(=O)[nH]c3=O)[C@H](O)[C@@H]2O)[C@H](O)[C@@H]1O`, the IC50 turned out to be 1100 nM.

`Cc1ccc(C#C[C@H](O[C@@H]2O[C@H](CN)[C@@H](O)[C@H]2O)[C@H]2O[C@@H](n3ccc(=O)[nH]c3=O)[C@H](O)[C@@H]2O)cc1`: half-maximal inhibition (IC50) required 1300 nM.

Consider `NC[C@H]1O[C@@H](O[C@@H](C#Cc2ccccc2N)[C@H]2O[C@@H](n3ccc(=O)[nH]c3=O)[C@H](O)[C@@H]2O)[C@H](O)[C@@H]1O`, for which the IC50 is 2100 nM.

Compound `NC[C@H]1O[C@@H](O[C@@H](CCc2ccccc2)[C@H]2O[C@@H](n3ccc(=O)[nH]c3=O)[C@H](O)[C@@H]2O)[C@H](O)[C@@H]1O` returned an IC50 of 32000 nM.

Regarding `NC[C@H]1O[C@@H](O[C@@H](C#Cc2cccc(NC(=O)c3ccccc3)c2)[C@H]2O[C@@H](n3ccc(=O)[nH]c3=O)[C@H](O)[C@@H]2O)[C@H](O)[C@@H]1O`, 6700 nM corresponded to half-maximal inhibition (IC50).

`NC[C@H]1O[C@@H](O[C@@H](C#Cc2ccc(C(=O)O)cc2)[C@H]2O[C@@H](n3ccc(=O)[nH]c3=O)[C@H](O)[C@@H]2O)[C@H](O)[C@@H]1O` returned an IC50 of 4400 nM.

The compound `Cc1cccc(C#C[C@H](O[C@@H]2O[C@H](CN)[C@@H](O)[C@H]2O)[C@H]2O[C@@H](n3ccc(=O)[nH]c3=O)[C@H](O)[C@@H]2O)c1` registered a half-maximal inhibitory concentration (IC50) of 1400 nM.

`NC[C@H]1O[C@@H](O[C@@H](C#Cc2ccc(C(=O)Nc3ccccc3)cc2)[C@H]2O[C@@H](n3ccc(=O)[nH]c3=O)[C@H](O)[C@@H]2O)[C@H](O)[C@@H]1O` yielded an IC50 of 900 nM.

In turn, `NC[C@H]1O[C@@H](O[C@@H](C#Cc2ccc(N)cc2)[C@H]2O[C@@H](n3ccc(=O)[nH]c3=O)[C@H](O)[C@@H]2O)[C@H](O)[C@@H]1O` registered an IC50 of 300 nM.

For the compound `NC[C@H]1O[C@@H](O[C@@H](C#Cc2ccc(NC(=O)c3ccccc3)cc2)[C@H]2O[C@@H](n3ccc(=O)[nH]c3=O)[C@H](O)[C@@H]2O)[C@H](O)[C@@H]1O`, inhibition was half-maximal at 1400 nM (IC50).

As for `NC[C@H]1O[C@@H](O[C@@H](C#Cc2cccc(-c3ccccc3)c2)[C@H]2O[C@@H](n3ccc(=O)[nH]c3=O)[C@H](O)[C@@H]2O)[C@H](O)[C@@H]1O`, 650 nM corresponded to half-maximal inhibition (IC50).

Compound `NC[C@H]1O[C@@H](O[C@@H](C#Cc2ccccc2C(=O)O)[C@H]2O[C@@H](n3ccc(=O)[nH]c3=O)[C@H](O)[C@@H]2O)[C@H](O)[C@@H]1O` returned a half-maximal inhibitory concentration (IC50) of 5700 nM.

Turning to `NC[C@H]1O[C@@H](O[C@@H](C#Cc2ccccc2)[C@H]2O[C@@H](n3ccc(=O)[nH]c3=O)[C@H](O)[C@@H]2O)[C@H](O)[C@@H]1O`, half-maximal inhibition (IC50) was put at 2000 nM.
